Assay results reported in publication PMC7751394, “Succinic acid inhibits the activity of cytochrome P450 (CYP450) enzymes” (Pharmaceutical Biology, 2020).

How the values were obtained:
CYP2D6 [1] = molecular target: T1, CYP2D6 (Homo sapiens, UniProt P10635); test: biochemical
Procedure: (§1) All incubations were performed in triplicate, and the mean values were utilized. The typical incubation systems contained 100 mM potassium phosphate buffer (pH 7.4), NADPH generating system (1 mM NADP^+, 10 mM glucose-6-phosphate, 1 U/mL of glucose-6-phosphate dehydrogenase, and 4 mM MgCl2), the appropriate concentration of HLMs, a corresponding probe substrate and hispidulin (or positive inhibitor for different probe reactions) in a final volume of 200 μL.
(§2) The concentration of succinic acid was 100 μM, and the positive inhibitor concentrations were as follows: 10 μM furafylline for CYP1A2, 1 μM ketoconazole for CYP3A4, 10 μM tranylcypromine for CYP2A6, 50 μM clomethiazole for CYP2E1, 10 μM quinidine for CYP2D6, 10 μM sulfaphenazole for CYP2C9, 50 μM tranylcypromine for CYP2C19, 5 μM montelukast for CYP2C8. Probe substrates, positive inhibitors (except for dextromethorphan and quinidine, which were dissolved in water), and succinic acid were dissolved in methanol, with a final concentration of 1% (v/v), and 1% neat methanol was added to the incubations without inhibitor. There was a 3 min preincubation period (at 37 °C) before the reaction was initiated by adding an NADPH-generating system. The reaction was terminated by adding a 100 μL acetonitrile (10% trichloroacetic acid for CYP2A6) internal standard mix, and the solution was placed on ice. The mixture was centrifuged at 12,000 rpm for 10 min, and an aliquot (50 μL) of supernatant was transferred for HPLC analysis. The instrument used in this study was Agilent 1260 series instrument with DAD and FLD detector, and the quantitative assay for the corresponding metabolites was performed as previously reported (Lang et al. [2017]; Zhang et al. [2017]).
(§3) Succinic acid (100 μM) was used to initially screen for its direct inhibitory effects towards different human CYP isoforms. […] Ki values were obtained by incubating various concentrations of different probe substrates (20–100 μM testosterone, 10–50 μM dextromethorphan, 5–20 μM diclofenac) in the presence of 0–50 μM succinic acid.
(§4) The enzyme kinetic parameters for the probe reaction were estimated from the best fit line, using least-squares linear regression of the inverse substrate concentration versus the inverse velocity (Lineweaver-Burk plots), and the mean values were used to calculate Vmax and Km. Inhibition data from the experiments that were conducted using multiple compound concentrations were represented by Dixon plots, and inhibition constant (Ki) values were calculated using non-linear regression according to the following equation: v=(VmaxS)/(Km(1+I/Ki)+S), where I is the concentration of the compound, Ki is the inhibition constant, S is the concentration of the substrate, and Km is the substrate concentration at half the maximum velocity (Vmax) of the reaction. The mechanism of the inhibition was inspected using the Lineweaver-Burk plots and the enzyme inhibition models. The data comparison was performed using Student’s t-test and performed using IBM SPSS statistics 20 (SPSS Inc.).

CYP3A4 [2] = molecular target: T2, CYP3A4 (Homo sapiens, UniProt P08684); test: biochemical
T2 sequence (P08684 whole entry): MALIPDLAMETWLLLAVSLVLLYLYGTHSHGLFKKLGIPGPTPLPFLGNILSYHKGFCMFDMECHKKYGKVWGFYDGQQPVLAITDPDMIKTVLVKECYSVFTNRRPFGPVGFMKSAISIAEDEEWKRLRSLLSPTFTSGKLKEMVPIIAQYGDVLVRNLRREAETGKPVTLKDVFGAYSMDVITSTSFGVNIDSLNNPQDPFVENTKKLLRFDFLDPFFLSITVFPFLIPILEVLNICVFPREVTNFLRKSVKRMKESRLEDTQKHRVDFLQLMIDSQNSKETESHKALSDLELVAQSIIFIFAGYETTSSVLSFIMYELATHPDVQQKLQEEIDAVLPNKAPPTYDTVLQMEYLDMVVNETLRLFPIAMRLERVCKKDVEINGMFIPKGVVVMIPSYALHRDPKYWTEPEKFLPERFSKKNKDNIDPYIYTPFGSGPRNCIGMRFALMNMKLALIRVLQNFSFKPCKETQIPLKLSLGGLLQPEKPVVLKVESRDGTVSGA
Procedure: as §1, §2, §3, §4

CYP2C9 [3] = molecular target: T3, CYP2C9 (Homo sapiens, UniProt P11712); test: biochemical
T3 sequence (P11712 whole entry): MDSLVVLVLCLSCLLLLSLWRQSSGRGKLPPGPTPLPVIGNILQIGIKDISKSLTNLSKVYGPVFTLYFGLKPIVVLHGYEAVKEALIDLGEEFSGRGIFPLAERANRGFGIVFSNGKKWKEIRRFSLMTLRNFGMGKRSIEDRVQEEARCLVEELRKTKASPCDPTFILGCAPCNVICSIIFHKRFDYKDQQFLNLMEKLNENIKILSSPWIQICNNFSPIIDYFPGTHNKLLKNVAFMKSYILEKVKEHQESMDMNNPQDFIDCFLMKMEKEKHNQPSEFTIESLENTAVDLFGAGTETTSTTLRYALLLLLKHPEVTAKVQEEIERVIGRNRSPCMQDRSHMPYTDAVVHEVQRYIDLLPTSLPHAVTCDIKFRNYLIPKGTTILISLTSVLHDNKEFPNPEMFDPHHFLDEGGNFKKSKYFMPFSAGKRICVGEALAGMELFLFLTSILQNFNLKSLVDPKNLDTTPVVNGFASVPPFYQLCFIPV
Procedure: as §1, §2, §3, §4

CYP3A4 [4] = molecular target: T2, CYP3A4
Procedure: (§5) To determine whether succinic acid could inhibit the activity of CYP3A4, 2D6, and 2C9 in a time-dependent manner, succinic acid (20 μM) was pre-incubated with HLMs (1 mg/mL) in the presence of an NADPH-generating system for 30 min at 37 °C. After incubation, an aliquot (20 μL) was transferred to another incubation tube (final volume 200 μL) containing an NADPH-generating system and probe substrates whose final concentrations were approximate to Km. Then, further incubations were performed to measure the residual activity. After being incubated for 0, 5, 10, 15, and 30 min, the reactions were terminated by adding a 100 μL acetonitrile internal standard mix and then placed on ice; the corresponding metabolites were determined by HPLC.
To determine the KI and Kinact values for the inactivation of CYP3A4, the incubations were conducted using higher probe substrate concentrations (approximately 4-fold Km values) and various concentrations of succinic acid (0–50 μM) after different preincubation times (0–30 min), with a two-step incubation scheme, as described above.

CYP2D6 [5] = molecular target: T1, CYP2D6; conditions: succinic acid 20 μM, 0–30 min
Procedure: as §5

CYP2C9 [6] = molecular target: T3, CYP2C9; conditions: succinic acid 20 μM, 0–30 min
Procedure: as §5

T1 sequence (P10635 whole entry): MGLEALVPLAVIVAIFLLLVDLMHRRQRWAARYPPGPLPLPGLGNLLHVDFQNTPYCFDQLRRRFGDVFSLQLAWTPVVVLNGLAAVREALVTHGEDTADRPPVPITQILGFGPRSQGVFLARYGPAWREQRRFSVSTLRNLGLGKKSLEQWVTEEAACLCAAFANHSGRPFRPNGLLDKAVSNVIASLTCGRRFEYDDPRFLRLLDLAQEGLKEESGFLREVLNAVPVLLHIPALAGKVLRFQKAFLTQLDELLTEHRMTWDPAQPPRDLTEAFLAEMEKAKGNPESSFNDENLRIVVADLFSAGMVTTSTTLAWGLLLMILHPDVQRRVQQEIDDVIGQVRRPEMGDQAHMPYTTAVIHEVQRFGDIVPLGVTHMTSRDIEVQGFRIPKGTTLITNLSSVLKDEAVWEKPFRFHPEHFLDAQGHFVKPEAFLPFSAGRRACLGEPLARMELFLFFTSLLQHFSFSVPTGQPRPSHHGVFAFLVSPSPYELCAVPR

IC50 (CYP2D6 [1]): 14.5 µM
Ki (CYP2D6 [1]): 7.4 µM
inhibition model CYP2D6 (Lineweaver-Burk plots) (CYP2D6 [1]; microsomes): competitive
IC50 (CYP3A4 [2]): 12.8 µM
Ki (CYP3A4 [2]): 6.18 µM
inhibition model CYP3A4 (Lineweaver-Burk plots) (CYP3A4 [2]; pooled HLM): non-competitive
IC50 (CYP2C9 [3]): 19.6 µM
Ki (CYP2C9 [3]): 9.48 µM
inhibition model CYP2C9 (Lineweaver-Burk plots) (CYP2C9 [3]; pooled HLM): competitive
time dependence of CYP3A4 inhibition (CYP3A4 [4]; succinic acid 20 μM, 0–30 min): time-dependent
activity of CYP3A4 (decreased to) after incubating (CYP3A4 [4]; succinic acid 20 μM, 30 min incubation, HLMs with NADPH): 26.65%
CYP3A4 inactivated by succinic acid (CYP3A4 [4]; suggested from Kinact): about 5.1%
effect of incubation time on CYP2D6 activity (CYP2D6 [5]): not affected by the incubation time
effect of incubation time on CYP2C9 activity (CYP2C9 [6]): not affected by the incubation time
SMILES: O=C(O)CCC(=O)O [succinic acid, Succinic acid]
